Experimental data: ChEMBL document CHEMBL3044875, “Synthesis and antimicrobial activity of some bisoctahydroxanthene-1,8-dione derivatives” (2011)
Calls of active or inactive are those of the source. The calls are words filed in the database; no cut-off is given here.

How the values were obtained:
[1] = test system: Staphylococcus aureus; assay: Antibacterial activity against Staphylococcus aureus ATCC 25923 at 20 ug/disc after 24 hr by disk diffusion method; assay type: functional
[2] = test system: Escherichia coli; assay: Antibacterial activity against Escherichia coli ATCC 25922 at 140 ug/disk after 24 hr by disk-diffusion method; assay type: functional
[3] = test system: Aspergillus niger; assay: Antifungal activity against Aspergillus niger ATCC 10949 at 40 ug/disk after 72 hr by disk diffusion method; assay type: functional, organism-based
[4] = test system: Bacillus cereus; assay: Antibacterial activity against Bacillus cereus NRRL 3711 at 140 ug/disk after 24 hr by disk diffusion method; assay type: functional; settings: for zone of inhibition at 140 µg/disc: NRRL 3711, 24 h, read-out: DIZ
[5] = test system: Candida albicans; assay: Antifungal activity against Candida albicans ATCC 10231 at 40 ug/disk after 48 hr by disk-diffusion method; assay type: functional; settings: for zone of inhibition at 40 µg/disc: ATCC 10231, 48 h, read-out: DIZ
[6] = test system: Proteus vulgaris; assay: Antibacterial activity against Proteus vulgaris NRRL-B-123 at 20 ug/disk after 24 hr by disk diffusion method; assay type: functional, organism-based
[7] = test system: Rhodotorula mucilaginosa; assay: Antifungal activity against Rhodotorula mucilaginosa at 20 ug/disk after 48 hr by disk diffusion method; assay type: functional
[8] = test system: Nocardia; assay: Antibacterial activity against Nocardia canis at 140 ug/disk after 24 hr by disk diffusion method; assay type: functional
[9] = test system: Staphylococcus aureus; assay: Antibacterial activity against Staphylococcus aureus ATCC 25923 at 40 ug/disc after 24 hr by disk diffusion method; assay type: functional
[10] = test system: Rhodotorula mucilaginosa; assay: Antifungal activity against Rhodotorula mucilaginosa at 140 ug/disk after 48 hr by disk diffusion method; assay type: functional; settings: for zone of inhibition at 140 µg/disc: read-out: DIZ
[11] = test system: Staphylococcus epidermidis; assay: Antibacterial activity against Staphylococcus epidermidis ATCC 12228 at 140 ug/disk after 24 hr by disk diffusion method; assay type: functional
[12] = test system: Staphylococcus epidermidis; assay: Antibacterial activity against Staphylococcus epidermidis ATCC 12228 at 40 ug/disk after 24 hr by disk diffusion method; assay type: functional
[13] = test system: Pseudomonas aeruginosa; assay: Antibacterial activity against Pseudomonas aeruginosa ATCC 27853 at 40 ug/disk after 24 hr by disk-diffusion method; assay type: functional, organism-based
[14] = test system: Aspergillus niger; assay: Antifungal activity against Aspergillus niger ATCC 10949 at 140 ug/disk after 72 hr by disk diffusion method; assay type: functional
[15] = test system: Candida albicans; assay: Antifungal activity against Candida albicans ATCC 10231 at 20 ug/disk after 48 hr by disk-diffusion method; assay type: functional
[16] = test system: Aspergillus niger; assay: Antifungal activity against Aspergillus niger ATCC 10949 at 20 ug/disk after 72 hr by disk diffusion method; assay type: functional, organism-based
[17] = test system: Proteus vulgaris; assay: Antibacterial activity against Proteus vulgaris NRRL-B-123 at 40 ug/disk after 24 hr by disk diffusion method; assay type: functional, organism-based
[18] = test system: Escherichia coli; assay: Antibacterial activity against Escherichia coli ATCC 25922 at 20 ug/disk after 24 hr by disk-diffusion method; assay type: functional
[19] = test system: Proteus vulgaris; assay: Antibacterial activity against Proteus vulgaris NRRL-B-123 at 140 ug/disk after 24 hr by disk diffusion method; assay type: functional, organism-based
[20] = test system: Nocardia; assay: Antibacterial activity against Nocardia canis at 20 ug/disk after 24 hr by disk diffusion method; assay type: functional, organism-based
[21] = test system: Staphylococcus aureus; assay: Antibacterial activity against Staphylococcus aureus ATCC 25923 at 140 ug/disc after 24 hr by disk diffusion method; assay type: functional
[22] = test system: Rhodotorula mucilaginosa; assay: Antifungal activity against Rhodotorula mucilaginosa at 40 ug/disk after 48 hr by disk diffusion method; assay type: functional
[23] = test system: Nocardia; assay: Antibacterial activity against Nocardia canis at 40 ug/disk after 24 hr by disk diffusion method; assay type: functional
[24] = test system: Pseudomonas aeruginosa; assay: Antibacterial activity against Pseudomonas aeruginosa ATCC 27853 at 140 ug/disk after 24 hr by disk-diffusion method; assay type: functional, organism-based
[25] = test system: Staphylococcus epidermidis; assay: Antibacterial activity against Staphylococcus epidermidis ATCC 12228 at 20 ug/disk after 24 hr by disk diffusion method; assay type: functional, organism-based
[26] = test system: Candida albicans; assay: Antifungal activity against Candida albicans ATCC 10231 at 140 ug/disk after 48 hr by disk-diffusion method; assay type: functional; settings: for zone of inhibition at 140 µg/disc: ATCC 10231, 48 h, read-out: DIZ
[27] = test system: Escherichia coli; assay: Antibacterial activity against Escherichia coli ATCC 25922 at 40 ug/disk after 24 hr by disk-diffusion method; assay type: functional
[28] = test system: Bacillus cereus; assay: Antibacterial activity against Bacillus cereus NRRL 3711 at 40 ug/disk after 24 hr by disk diffusion method; assay type: functional
[29] = test system: Pseudomonas aeruginosa; assay: Antibacterial activity against Pseudomonas aeruginosa ATCC 27853 at 20 ug/disk after 24 hr by disk-diffusion method; assay type: functional, organism-based
[30] = test system: Bacillus cereus; assay: Antibacterial activity against Bacillus cereus NRRL 3711 at 20 ug/disk after 24 hr by disk diffusion method; assay type: functional
[31] = ATCC 25922, 24 h, read-out: DIZ

Row | SMILES | diameter of the inhibition zone (DIZ) [1] | diameter of the inhibition zone (DIZ) [3] | diameter of the inhibition zone (DIZ) [6] | diameter of the inhibition zone (DIZ) [7] | diameter of the inhibition zone (DIZ) [8] | diameter of the inhibition zone (DIZ) [9] | diameter of the inhibition zone (DIZ) [11] | diameter of the inhibition zone (DIZ) [12] | diameter of the inhibition zone (DIZ) [13] | diameter of the inhibition zone (DIZ) [15] | diameter of the inhibition zone (DIZ) [16] | diameter of the inhibition zone (DIZ) [17] | diameter of the inhibition zone (DIZ) [18] | diameter of the inhibition zone (DIZ) [19] | diameter of the inhibition zone (DIZ) [20] | diameter of the inhibition zone (DIZ) [21] | diameter of the inhibition zone (DIZ) [22] | diameter of the inhibition zone (DIZ) [23] | diameter of the inhibition zone (DIZ) [24] | diameter of the inhibition zone (DIZ) [25] | other results
1 | COc1ccc(C2CC(=O)C3=C(C2)OC2=C(C(=O)CC(c4ccc(OC)c(OC)c4)C2)C3c2ccc(C3C4=C(CC(c5ccc(OC)c(OC)c5)CC4=O)OC4=C3C(=O)CC(c3ccc(OC)c(OC)c3)C4)cc2)cc1OC (stereo not given) | inactive | inactive | inactive | inactive | inactive | inactive | inactive | inactive | inactive | inactive | inactive | inactive | inactive | inactive | inactive | inactive | inactive | inactive | inactive | inactive | diameter of the inhibition zone (DIZ) [2]: inactive; diameter of the inhibition zone (DIZ) [4]: inactive; zone of inhibition at 40 µg/disc [5]: 7 mm; diameter of the inhibition zone (DIZ) [10]: inactive; diameter of the inhibition zone (DIZ) [14]: inactive; zone of inhibition at 140 µg/disc [26]: 7 mm; diameter of the inhibition zone (DIZ) [27]: inactive; diameter of the inhibition zone (DIZ) [28]: inactive; diameter of the inhibition zone (DIZ) [29]: inactive; diameter of the inhibition zone (DIZ) [30]: inactive
2 | CC1(C)CC(=O)C2=C(C1)OC1=C(C(=O)CC(C)(C)C1)C2c1cccc(C2C3=C(CC(C)(C)CC3=O)OC3=C2C(=O)CC(C)(C)C3)c1 | inactive | inactive | inactive | inactive | inactive | inactive | inactive | inactive | inactive | inactive | inactive | inactive | inactive | inactive | inactive | inactive | inactive | inactive | inactive | inactive | zone of inhibition at 140 µg/disc [2, 31]: 8 mm; zone of inhibition at 140 µg/disc [4]: 7 mm; zone of inhibition at 40 µg/disc [5]: 7 mm; zone of inhibition at 140 µg/disc [10]: 7 mm; diameter of the inhibition zone (DIZ) [14]: inactive; zone of inhibition at 140 µg/disc [26]: 7 mm; zone of inhibition at 40 µg/disc [27, 31]: 7 mm; diameter of the inhibition zone (DIZ) [28]: inactive; diameter of the inhibition zone (DIZ) [29]: inactive; diameter of the inhibition zone (DIZ) [30]: inactive
3 | CC1(C)CCC2=C(C1=O)C(c1ccc(C3C4=C(CCC(C)(C)C4=O)OC4=C3C(=O)C(C)(C)CC4)cc1)C1=C(CCC(C)(C)C1=O)O2 | inactive | inactive | inactive | inactive | inactive | inactive | inactive | inactive | inactive | inactive | inactive | inactive | inactive | inactive | inactive | inactive | inactive | inactive | inactive | inactive | diameter of the inhibition zone (DIZ) [2]: inactive; diameter of the inhibition zone (DIZ) [4]: inactive; diameter of the inhibition zone (DIZ) [5]: inactive; diameter of the inhibition zone (DIZ) [10]: inactive; zone of inhibition at 140 µg/disc ([14]; ATCC 10949, 72 h, read-out: DIZ): 7 mm; diameter of the inhibition zone (DIZ) [26]: inactive; diameter of the inhibition zone (DIZ) [27]: inactive; diameter of the inhibition zone (DIZ) [28]: inactive; diameter of the inhibition zone (DIZ) [29]: inactive; diameter of the inhibition zone (DIZ) [30]: inactive
4 | CC1(C)CC(=O)C2=C(C1)OC1=C(C(=O)CC(C)(C)C1)C2c1ccc(C2C3=C(CC(C)(C)CC3=O)OC3=C2C(=O)CC(C)(C)C3)cc1 | inactive | inactive | inactive | inactive | inactive | inactive | inactive | inactive | inactive | inactive | inactive | inactive | inactive | inactive | inactive | inactive | inactive | inactive | inactive | inactive | diameter of the inhibition zone (DIZ) [2]: inactive; zone of inhibition at 140 µg/disc [4]: 7 mm; zone of inhibition at 40 µg/disc [5]: 9 mm; zone of inhibition at 140 µg/disc [10]: 9 mm; diameter of the inhibition zone (DIZ) [14]: inactive; zone of inhibition at 140 µg/disc [26]: 9 mm; diameter of the inhibition zone (DIZ) [27]: inactive; diameter of the inhibition zone (DIZ) [28]: inactive; diameter of the inhibition zone (DIZ) [29]: inactive; diameter of the inhibition zone (DIZ) [30]: inactive
